System: c-fos
Assay: c-fos activation (Fos-like immunoreactivity) in rat brain after atomoxetine
Format: in vivo
Conditions: rats, 3 mg/kg i.p., two hours after administration
Description: The immediate-early gene, c-fos, and its protein products have been increasingly utilized as markers for neuronal activation (Dragunow and Faull, J. Neurosci. Methods, 29, 261-265 (1989); Morgan and Curran, Prog. In Brain Res., 86, 287-294 (1990); Robertson, et al., J. Pharmacol. Exp. Ther., 271, 1058-1066 (1994)). C-fos activation is measured as illustrated below for atomoxetine.
Two hours after administration of atomoxetine (3 mg/kg, i.p.), the rats were deeply anesthetized with sodium pentobarbital (60 mg/kg, i.p.) and transcardially perfused with 100 ml of phosphate buffered saline (PBS) followed by 100 ml of 4% paraformaldehyde in PBS. The brain was rapidly removed, postfixed for 90 min in 4% paraformaldehyde and then was transferred to 30% sucrose at […] until saturated. After quick freezing, serial 30 μm sections were cut and placed in PBS until processed for immunohistochemistry. In brief, sections were incubated in PBS containing blocking serum and 0.5% Triton-X 100 for 1 hour. Sections were then incubated with anti-Fos antibody (Santa Cruz Biotechnology, Inc.) at 4° C. overnight. Visualization of the Fos-like immunoreactivity was performed with a Vectastain ABC Elite Kit (Vector Labs, Burlingame, Calif.) using the standard protocol supplied with the kit. Nickel-intensified diaminobenzidine (DAB) was used as the chromagen to yield a gray-black precipitation product. Following visualization of the Fos immunoreactivity, the sections were mounted on gelatin-coated glass slides and allowed to dry. The sections were then dehydrated and cover slipped. Fos expressing cells were quantitated using the MCID M2 imaging system (Imaging Research, St. Catherines, Ontario).

## CNCC[C@@H](Oc1ccccc1C)c1ccccc1 [Atomoxetine, (R)-(−)-N-methyl-3-(2-methylphenoxy)-3-phenylpropylamine]
Nucleus accumbens
  Fos positive cells, Nucleus Accumbens: 152 ± 44 Fos positive cells/mm^2
Prefrontal cortex
  Fos positive cells, Prefrontal Cortex: 296 ± 26 Fos positive cells/mm^2
striatum
  Fos positive cells, Striatum: 102 ± 35 Fos positive cells/mm^2
Summary of the table
  expression of c-fos (regional pattern, in words): increased the expression of c-fos only in the cortical areas
